The record followed here is patent US8518889B2, “Method of treating cancer with antibodies against long-form leukotriene B4 receptor BLT2” (Korea University Research & Business Foundation, priority 2007, dated 2013).

The test system of one assay is PWR-1E cells. Description: MTT assay, cell viability. In kind it is cell-based. Particulars: increasing concentration, 48 hr, serum free RPMI 1640. The method, then:
The effect of LY255283, BLT2 antagonist, on cell viability was examined by MTT assay. PWR-1E cells were seeded at a density of 1.0×10^4 cells/well and LNCaP cells were seeded at a density of 1.5×10^4 cells/well in 96-well culture dishes. After 36 hr, the medium was replaced with serum free RPMI 1640 and cells were stimulated with DMSO or LY255283 of increasing concentration. MTT (1 mg/mu) was added at 48 hr after LY255283 treatment and after 4 hr of further incubation the medium was replaced with DMSO. Then cells were incubated at room temperature for 10 min. The spectrophotometric absorbance of the samples was determined by using Ultra Multifunctional Microplate Reader at 540 nm. LNCaP cells and PWR-1E cells were stimulated with LY255283 of various concentration in serum free RPM11640.
In general terms: Formazan colour is commonly taken as a measure of viable cells.

The next assay deals with LNCaP cells. The format is cell-based, human. Particulars: 5 μM, 48 hr. The method, then:
DNA fragmentation was shown by the harvesting of total cellular DNA. Cells were grown in 10 cm plates to 70% confluence with 10% FBS-supplemented medium. Then the media was replaced with serum free RPMI 1640 and the cells were treated with 5 μM LY255283 for 48 hr. Cellular DNA from cells was extracted incubating with lysis buffer (1 mM EDTA, 10 mM Tris, 120 mM NaCl, 1% SDS and 100 μg/ml proteinase K, pH 8.0) for 12 hr at 50° C. The lysate was centrifuged for 10 min at 13,000×g to separate the fragment DNA. The supernatant was then extracted twice with phenol/chloroform/isoamyl alcohol and precipitated with absolute ethanol. […] After electrophoresis, gels were stained with ethidium bromide, and the DNA was visualized by UV light.

The next assay deals with SV-HUC-1 cells. Kind of assay: [3H]-thymidine incorporation assay. The format is cell-based. Particulars: 48 hr. The method, then: Cells were seed in 96-well plate at the density of 1.0×10^4/well. After 24 hr incubation in RPMI 1640 supplemented with 10% FBS, the media was replaced with RPMI 1640 containing 0.5% FBS for 12 hr. After cells were treated with different concentration BLT antagonists. Then [^3H]-thymidine (1 μCi/ml) (PerkinElmer Life Sciences) was added at 12 hr after antagonists treatment and after 36 hr of further incubation, cells were harvested on the filtermat (PerkinElmer Life Science) and filtermat was dried and packaged in the sample bag (PerkinElmer Life Science). Finally, Betaplate scint (PerkinElmer Life Science) was added to the filtermat, and the radioactivity was counted in a liquid scintillation counter (MicroBeta, Wallac/PerkinElmer). […] LY255283 inhibited proliferation by at least 50% at a concentration of 10 μM at 48 hr.
(In general: Uptake of a labelled nucleoside into DNA is a usual measure of proliferation.)

The test system of the next assay is Rat2-BLT2 cells. Kind of assay: experimental metastasis assay, lung metastasis driven by BLT2. In kind it is in vivo, nude mice. The conditions noted are these: intraperitoneal 3 and 5 days after cell injection, 21 days. As to the method:
All experimental animals used in this study were treated according to guidelines approved by the Institutional Animal Care and Use Committee of Korea University. Female nude mice (Charles River, Wilmington, Mass.), four-weeks-old at the time of injection, were used in the experimental metastasis assay. Rat-2, Rat2-HO6, and Rat2-BLT2 cells (5×10^5 cells) were prepared for injection from cultures in logarithmic growth at the time of harvest. The cells were briefly treated with 0.025% trypsin and 0.1% EDTA in Hanks' balanced salt solution and quickly removed from trypsin by centrifugation, resuspended in saline containing LTB4, and injected within 1 hr in 0.1 ml into the lateral tail vein with a 26-gauge needle. For inhibitor experiments, U75302 and LY255283 (0.25 mg/kg for BLT1 antagonist and 2.5 mg/kg for BLT2 antagonist) was injected intraperitoneal ˜3 and 5 days after injection of cells that were pretreated with inhibitors. […]
In vivo lung metastasis driven by H-Ras^V12 (panel B of FIG. 2a) or BLT2 (panel C of FIG. 2a) was reduced by BLT2 inhibition (LY255283) based on the macroscopic and histologic appearance of lung. […] Mice were euthanized 21 days after cell injection, and the number of lung metastasis nodules and weight of lung was analyzed in each group. […] Metastasis survival was analyzed in Kaplan-Meyer plots.

Molecules are shown by their SMILES.

For `CCc1cc(C(C)=O)c(O)cc1OCCCCCC(C)(C)c1nnn[nH]1` [LY255283, 1-[5-ethyl-2-hydroxy-4-[[6-methyl-6-(1H-tetrazol-5-yl)heptyl]oxy]phenyl]-ethanone], the “PWR-1E cell viability (MTT)” value in the assay on PWR-1E cells is given as “no effect”. Also, the DNA fragmentation result in the assay with LNCaP cells is “A smear of different sizes of DNA fragments was observed”.

With `CCCCC/C=C\C[C@@H](O)/C=C/c1cccc(C[C@@H](O)CCCCO)n1` [U75302], in the assay with SV-HUC-1 cells, the “inhibition of thymidine incorporation / cell proliferation” value is listed as “not effect”. Also, the “lung metastasis driven by BLT2” value in the assay on Rat2-BLT2 cells is listed as “caused no suppression on metastasis”.
